Blank lines part the entries; values can stand above or below the compound they belong to.
Legend:
human topoisomerase I = target: T1, human topoisomerase I (Homo sapiens, UniProt P11387); assay: DNA relaxation assay on human topoisomerase I (gel based, supercoiled pBR322); type: biochemical; details: ±SD, n = 2; relaxation of supercoiled pBR322, 37 °C, 30 min, 10 % DMSO; read-out: IC50 [µM] Topo I
T1 construct: purchased Inspiralis Limited, UK (assay run by the vendor as a service)
T1 sequence (P11387 1-765): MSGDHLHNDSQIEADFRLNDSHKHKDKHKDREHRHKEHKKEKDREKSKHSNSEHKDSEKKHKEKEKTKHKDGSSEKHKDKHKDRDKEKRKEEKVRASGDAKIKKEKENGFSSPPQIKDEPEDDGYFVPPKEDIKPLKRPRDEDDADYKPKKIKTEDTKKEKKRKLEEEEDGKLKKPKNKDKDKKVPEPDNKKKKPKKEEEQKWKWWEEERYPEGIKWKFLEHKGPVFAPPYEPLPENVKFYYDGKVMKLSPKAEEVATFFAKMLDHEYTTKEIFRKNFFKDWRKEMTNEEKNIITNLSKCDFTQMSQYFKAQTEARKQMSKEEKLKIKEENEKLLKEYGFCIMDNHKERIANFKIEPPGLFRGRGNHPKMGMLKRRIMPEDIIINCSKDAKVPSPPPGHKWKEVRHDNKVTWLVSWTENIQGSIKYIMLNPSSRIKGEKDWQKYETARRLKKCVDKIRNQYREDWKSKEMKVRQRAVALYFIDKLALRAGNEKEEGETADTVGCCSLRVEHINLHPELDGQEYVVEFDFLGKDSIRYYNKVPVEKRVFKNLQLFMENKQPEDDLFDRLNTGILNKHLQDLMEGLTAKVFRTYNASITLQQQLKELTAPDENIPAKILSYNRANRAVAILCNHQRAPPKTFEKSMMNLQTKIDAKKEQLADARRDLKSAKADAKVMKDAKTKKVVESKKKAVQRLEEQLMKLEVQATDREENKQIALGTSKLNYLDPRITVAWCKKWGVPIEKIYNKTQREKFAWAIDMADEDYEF

[1] = tested on: 5637: human urinary bladder carcinoma cells; design: method as in PMID 24046217, PMID 25069157; details: ±SD, ref [3], [5], [10], read-out: IC50 [µM] Cytotoxicity 5637; cited from earlier work
[2] = tested on: MCF-7: human breast cancer cells; design: method as in PMID 24046217, PMID 25069157; details: ±SD, ref [3], [5], [10], read-out: IC50 [µM] Cytotoxicity MCF-7; cited from earlier work
[3] = tested on: LN-18: human glioblastoma cells; design: method as in PMID 24046217, PMID 25069157; details: ±SD, ref [3], [5], [10], read-out: IC50 [µM] Cytotoxicity LN-18; cited from earlier work
[4] = tested on: HaCat: human keratinocyte cells; design: method as in PMID 24046217, PMID 25069157; details: ±SD; HaCaT human keratinocyte cells (non-tumorigenic); ref [3], [5], [10]; read-out: IC50 [µM] Cytotoxicity HaCaT; cited from earlier work

IC50 (human topoisomerase I): 7.5 ± 0.6 µM
Structure (SMILES): CC=C(C)C(=O)OC1CC(C)(C)CC2C3=CCC4C5(C)CCC(OC6OC(C(=O)O)C(OC7OC(CO)C(O)C7O)C(OC7OCC(O)C(O)C7O)C6OC6OC(CO)C(O)C(O)C6O)C(C)(C)C5CCC4(C)C3(C)C(O)C(O)C12CO (centres unmarked) [Compound 1, pittangretoside A]
IC50 [1]: 4.1 ± 1 µM
IC50 [2]: 25.7 ± 1.9 µM
IC50 [3]: 7.6 ± 1.7 µM
IC50 [4]: 15.2 ± 0.9 µM

IC50 (human topoisomerase I): 4.8 ± 2.4 µM
Structure (SMILES): CC=C(C)C(=O)OC1CC(C)(C)CC2C3=CCC4C5(C)CCC(OC6OC(C(=O)O)C(O)C(O)C6OC6OC(CO)C(O)C(O)C6OC6OC(C)C(O)C(O)C6O)C(C)(C)C5CCC4(C)C3(C)C(O)C(O)C12CO (centres unmarked) [Compound 2, pittangretoside D]
IC50 [1]: 17.9 ± 1 µM
IC50 [2]: 36.6 ± 5.7 µM
IC50 [3]: 35.7 ± 5.2 µM
IC50 [4]: > 118 µM

IC50 (human topoisomerase I): 16.8 ± 0.4 µM
Structure (SMILES): CCC(C)C(=O)OCC12C(O)CC(C)(C)CC1C1=CCC3C4(C)CCC(OC5OC(C(=O)O)C(OC6OC(CO)C(O)C6O)C(OC6OCC(O)C(O)C6O)C5OC5OC(CO)C(O)C(O)C5O)C(C)(C)C4CCC3(C)C1(C)C(O)C2O (centres unmarked) [Compound 3, pittangretoside F]
IC50 [1]: > 106 µM

Structure (SMILES): CC=C(C)C(=O)OC1C(OC(C)=O)C2(CO)C(CC1(C)C)C1=CCC3C4(C)CCC(OC5OC(C(=O)O)C(OC6OC(CO)C(O)C6O)C(OC6OCC(O)C(O)C6O)C5OC5OC(CO)C(O)C(O)C5O)C(C)(C)C4CCC3(C)C1(C)C(O)C2O (centres unmarked) [Compound 4, IIIA3]
IC50 (human topoisomerase I): 8.6 ± 0.1 µM
IC50 [2]: 19.8 ± 2.2 µM
IC50 [3]: 13.4 ± 0.8 µM
IC50 [4]: 15.9 ± 1.3 µM

Structure (SMILES): CC=C(C)C(=O)OC1C(OC(C)=O)C(C)(C)CC2C3=CCC4C5(C)CCC(OC6OC(C(=O)O)C(OC7OC(CO)C(O)C7O)C(OC7OCC(O)C(O)C7O)C6OC6OC(CO)C(O)C(O)C6O)C(C)(C)C5CCC4(C)C3(C)C(O)C(O)C21CO (centres unmarked) [Compound 5, pittangretoside N]
IC50 (human topoisomerase I): 6.5 ± 0.6 µM
IC50 [2]: 28.7 ± 3.6 µM
IC50 [3]: 10.4 ± 2.7 µM
IC50 [4]: 34.1 ± 2.8 µM

Structure (SMILES): CCC(C)(OC(C)=O)C(=O)OC1C(OC(C)=O)C(C)(C)CC2C3=CCC4C5(C)CCC(OC6OC(C(=O)O)C(OC7OC(CO)C(O)C7O)C(OC7OCC(O)C(O)C7O)C6OC6OC(CO)C(O)C(O)C6O)C(C)(C)C5CCC4(C)C3(C)C(O)C(O)C21CO (centres unmarked) [Compound 6, pittangretoside O]
IC50 (human topoisomerase I): 7.5 ± 1.6 µM
IC50 [2]: 22.9 ± 1.8 µM
IC50 [3]: 4.4 ± 0.7 µM
IC50 [4]: 19.2 ± 2.1 µM

IC50 (human topoisomerase I): 4.2 ± 0.2 µM
Structure (SMILES): CCC(C)C(=O)OC1C(OC(C)=O)C2(CO)C(CC1(C)C)C1=CCC3C4(C)CCC(OC5OC(C(=O)O)C(OC6OC(CO)C(O)C6O)C(OC6OCC(O)C(O)C6O)C5OC5OC(CO)C(O)C(O)C5O)C(C)(C)C4CCC3(C)C1(C)C(O)C2O (centres unmarked) [Compound 7, pittangretoside P]
IC50 [2]: 28.7 ± 3.2 µM
IC50 [3]: 7 ± 0.9 µM
IC50 [4]: 11.2 ± 0.5 µM

Structure (SMILES): CCC(C)C(=O)OC1CC(C)(C)CC2C3=CCC4C5(C)CCC(OC6OC(C(=O)O)C(OC7OC(CO)C(O)C7O)C(OC7OCC(O)C(O)C7O)C6OC6OC(CO)C(O)C(O)C6O)C(C)(C)C5CCC4(C)C3(C)C(O)C(O)C12CO (centres unmarked) [Compound 8]
IC50 (human topoisomerase I): 2.8 ± 1.1 µM
IC50 [3]: 3.9 ± 0.1 µM

Structure (SMILES): CC=C(C)C(=O)OC1C(OC(=O)C(C)=CC)C2(CO)C(CC1(C)C)C1=CCC3C4(C)CCC(OC5OC(C(=O)O)C(OC6OC(CO)C(O)C6O)C(OC6OCC(O)C(O)C6O)C5OC5OC(CO)C(O)C(O)C5O)C(C)(C)C4CCC3(C)C1(C)C(O)C2O (centres unmarked) [Compound 9, IIIC4]
IC50 (human topoisomerase I): 46.5 ± 11.5 µM
IC50 [2]: 8.9 ± 0.8 µM
IC50 [3]: 4.6 ± 0.5 µM
IC50 [4]: 2.2 ± 0.5 µM

Structure (SMILES): CC=C(C)C(=O)OC1C(OC(=O)C(C)=CC)C2(CO)C(O)CC3(C)C(=CCC4C5(C)CCC(OC6OC(C(=O)O)C(OC7OC(CO)C(O)C7O)C(OC7OCC(O)C(O)C7O)C6OC6OC(CO)C(O)C(O)C6O)C(C)(C)C5CCC43C)C2CC1(C)C (centres unmarked) [Compound 10, pittangretoside T]
IC50 (human topoisomerase I): 5 ± 3.3 µM
